IC50 data for one compound are collected here from US20070009944A1, “Assay for nucleic acid ligase and nucleic acid nuclease” (University of East Anglia, priority 2005, published 2007).

Where a name gives a salt, the structure may show the parent alone.

This assay addresses T1, E. coli DNA ligase (LigA) (Escherichia coli, UniProt P15042).
T1 construct: His tag; made in house
Briefly: In-well ligation of immobilised nicked DNA hairpins (fluorescence retention, micro-titre plate). It is filed as biochemical. The settings on record: 15 nM E. coli DNA ligase; ligates 60% of immobilized hairpins without inhibitor; FIG. 8; read-out: 50% inhibition of E. coli DNA ligase activity. The procedure: Ligation of immobilised nicked hairpins was performed in the streptavidin coated wells of a micro-titre plate (StreptaWell HighBind 96-well plate, opaque, white). After each of the following steps were performed, the entire solution in the well was removed and stored or discarded, as required. Hairpins were immobilised by placing 80 μL of a 5 μM hairpin solution into each well. The hairpin solution was removed after 5 minutes and the wells washed 5 times with 100 μL Wash Buffer (30 mM Tris-HCl, 4 mM MgCl2, pH 8.1), which allowed a stable fluorescence signal to be obtained from the immobilised hairpins. […] Fluorescence was recorded with a FL×800 Microplate Fluorescence Reader (Bio-Tek Instruments Inc). […]
In-well ligation of the nicked DNA hairpins by LigA was reflected by retention of fluorescence after exposure to DNA ligase and denaturation conditions, as shown in FIG. 6. […] The retention of fluorescence after exposure to DNA ligase and denaturation conditions is in contrast to the almost complete loss of fluorescence noted when the experiment was repeated without DNA ligase. […] The efficiency of in-well ligation was calculated in the following manner. The fluorescence retained in control experiments with the nicked hairpin was taken as a measure of background fluorescence intensity. […]

T1 sequence (P15042 whole entry): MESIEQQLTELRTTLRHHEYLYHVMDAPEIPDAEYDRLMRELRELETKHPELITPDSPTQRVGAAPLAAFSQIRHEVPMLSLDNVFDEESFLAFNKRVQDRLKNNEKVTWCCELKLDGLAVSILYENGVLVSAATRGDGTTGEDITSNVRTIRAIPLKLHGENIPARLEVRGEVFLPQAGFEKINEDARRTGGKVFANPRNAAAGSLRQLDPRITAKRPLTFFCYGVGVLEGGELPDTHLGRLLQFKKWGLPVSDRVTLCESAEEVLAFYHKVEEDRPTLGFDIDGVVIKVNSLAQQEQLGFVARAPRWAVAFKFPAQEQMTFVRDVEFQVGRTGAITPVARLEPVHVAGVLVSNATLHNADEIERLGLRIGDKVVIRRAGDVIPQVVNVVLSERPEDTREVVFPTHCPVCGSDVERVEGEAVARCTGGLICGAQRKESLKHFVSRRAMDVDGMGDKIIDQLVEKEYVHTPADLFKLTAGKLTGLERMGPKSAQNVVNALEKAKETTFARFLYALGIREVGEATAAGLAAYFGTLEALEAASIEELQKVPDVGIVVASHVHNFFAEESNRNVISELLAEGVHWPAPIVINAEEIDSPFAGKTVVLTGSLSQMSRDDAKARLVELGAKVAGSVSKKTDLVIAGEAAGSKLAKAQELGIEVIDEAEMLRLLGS

Turning to `CCN(CC)CCCC(C)Nc1c2ccc(Cl)cc2nc2ccc(OC)cc12` (stereo not shown) [quinacrine, quinacrine dihydrochloride], the IC50 was ~20 µM.
